Data from patent US20240060949A1, “BIOSYSTEMS TO DETECT CHEMICAL CONTAMINANTS” (priority 2020, published 2024).
Where two headings read alike, the source gives them in different places.

Assays:
CYP1A2 and CYP2C19 = format: biochemical
Procedure: The bioassay was performed in a 96-well plate. 80 μL of sample is added to wells in triplicate. […] After the preparation, 10 μL of enzyme mixture were added to each plate. After incubating at room temperature 10 μL of substrate mixture (5 μM of substrate EOMCC and 30 μM Vivid® NADP^+ diluted in working buffer) was added. The plate was incubated 30 minutes at 30° C. and when time passed, fluorescence signal was measured with a fluorometric reader, 410 nm and 460 nm were the excitation and emission wavelengths, respectively. A blank sample, buffer solution, was measured at the same time and the reduction of the signal, inhibition of enzyme activity, was calculated and associated with the presence of contaminants.

CYP3A4 [1] = molecular target: T1, CYP3A4 (Homo sapiens, UniProt P08684); format: biochemical; conditions: CYP3A4, DBF substrate; concentration providing 20% inhibition (IC20)
Procedure: (§1) The bioassay was performed in a 96-well plate. 50 μL of a solution containing PAHs or BFRs is added to wells in triplicate. […] After incubating at room temperature 10 μL of substrate mixture (5 μM of substrate (EOMCC for CYP1A2, BOMCC for CYP2B6 or DBF for CYP3A4) and 30 μM Vivid® NADP^+ diluted in working buffer) was added. The plate was incubated 30 minutes at 25° C. and when time passed, fluorescence signal was measured with a fluorometric reader, 410/490 nm and 460/520 nm were the excitation and emission wavelengths, respectively. A blank sample, buffer solution, was measured at the same time and the reduction of the signal, inhibition of enzyme activity, was calculated and associated with the presence of contaminants.

CYP3A4 [2] = molecular target: T1, CYP3A4; format: biochemical; conditions: for Inhibition percentage I (%): lateral flow reader; for Limit of detection: CYP3A4 lateral flow, concentration providing 20% of inhibition, estimated
Procedure: The metabolism of two different fluorescent substrates was used to determine the percent of inhibition of CYP3A4 as response to the contaminant concentrations. The enzymatic reactions were carried out in 96-well plates adding 80 μL of potassium phosphate buffer (100 mM, pH 8.0) or 100 ng/mL of standard solutions in duplicates. Both brominated compounds were prepared in potassium phosphate buffer (100 mM, pH 8.0) and tested as inhibitors of CYP3A4 activity. […] Subsequently, 10 μL of enzyme mixture were added to each well, homogenised and allowed to pre-incubate during 10 minutes at room temperature. Two different substrate mixtures were used in combination with brominated molecules. To evaluate the inhibition promoted by BDE-100, 10 μL of a substrate mixture containing 2 μM of DBF and 30 μM Vivid® NADP+ in potassium phosphate buffer (100 mM, pH8.0), were added to the appropriated wells. The inhibitory effect of HBCD concentration was tested for a substrate mixture, containing 2 μM of DBOMF and 30 μM Vivid® NADP+ prepared in potassium phosphate buffer (100 mM, pH8.0), from which 10 μL were added to the appropriated wells. After the addition of the respective substrate probes, the plate was newly incubated at 25° C. for 60 minutes. The resulting reaction broths were diluted 10 and 20 times in buffer, for respectively DBF and BDE-100, and for DBOMF and HBCD reactions. Finally, 1.5 μL of diluted broths were pipetted as a line onto nitrocellulose membranes and the fluorometric measurements carried out at a lateral flow reader (ESEQuant LR3, QIAGEN) with a fluorometric channel of 470 nm and 520 nm as excitation and emission wavelengths, respectively. A blank sample, buffer solution, was measured at the same time and the reduction of the signal, inhibition of enzyme activity, was calculated and associated with the presence of each BDE, as shown in Table 5.
Considering the signal intensity developed for different levels of the contaminant molecules, the concentration providing 20% of inhibition was selected as limit of detection, estimated to be 36 ng/mL and 14 ng/mL for BDE-100 and HBCD, respectively.

CYP2B10 = CYP2B10 (Mus musculus, UniProt P12791); conditions: CYP2B10, 3 μM BOMCC; concentration that induces 20% inhibition (Table 8)
CYP3A4 [3] = molecular target: T1, CYP3A4; conditions: pH 8
CYP2B6 [4] = molecular target: T2, CYP2B6 (Homo sapiens, UniProt P20813); conditions: pH 7.4
CYP2B6 [5] = molecular target: T2, CYP2B6; format: biochemical
Procedure: as §1

CYP3A4 [6] = molecular target: T1, CYP3A4; format: biochemical; conditions: CYP3A4 electrochemical biosensor, 50 μM progesterone, estimated
Procedure: The working electrodes (WE) of screen-printed carbon electrodes (SPCE) (C110, from Methrom-Dropsens), were modified with 3 μL suspension of 1 mg/mL of single-walled carbon nanotubes. After chloroform evaporation, 5 μL of a 0.08 nmol/mL solution of CYP3A4 (recombinant, expressed in E. Coli from Sigma-Aldrich) was deposited onto the modified WE surface and incubated overnight at 4° C. 100 mM of potassium phosphate buffer saline (PBS) at pH 8.0, containing 50 mM of potassium chloride, was used to prepare the standards, as well as a supporting electrolyte for the electrochemical measurements. Aliquots (60 μL) of 50 μM progesterone solutions containing 0, 50, 100, 200 and 300 ng/mL of HBCD, were placed onto the working area of the SPCE by drop-casting, incubated for 2 minutes at room temperature and the electrochemical measurements performed. For each sample, one cyclic voltammetric scan was carried out, sweeping the potential from −0.75 V to 0.30 V at 0.02 V/s. The peak height of the cathodic peaks generated near to −0.55 V was registered and HBCD presence, calculated using as reference the peak of the blank assay (buffer solution). The electrochemical signal registered at CYP3A4-based biosensor, respond to the concentration of HBCD, allowing to establish the I (%) values for different concentrations of this compound (FIG. 1). Limit of detection was estimated to be 42.8 ng/mL for HBCD.

[7] = CYP2B6, BOMCC substrate, concentration providing 20% inhibition (IC20)

T1 sequence (P08684 whole entry): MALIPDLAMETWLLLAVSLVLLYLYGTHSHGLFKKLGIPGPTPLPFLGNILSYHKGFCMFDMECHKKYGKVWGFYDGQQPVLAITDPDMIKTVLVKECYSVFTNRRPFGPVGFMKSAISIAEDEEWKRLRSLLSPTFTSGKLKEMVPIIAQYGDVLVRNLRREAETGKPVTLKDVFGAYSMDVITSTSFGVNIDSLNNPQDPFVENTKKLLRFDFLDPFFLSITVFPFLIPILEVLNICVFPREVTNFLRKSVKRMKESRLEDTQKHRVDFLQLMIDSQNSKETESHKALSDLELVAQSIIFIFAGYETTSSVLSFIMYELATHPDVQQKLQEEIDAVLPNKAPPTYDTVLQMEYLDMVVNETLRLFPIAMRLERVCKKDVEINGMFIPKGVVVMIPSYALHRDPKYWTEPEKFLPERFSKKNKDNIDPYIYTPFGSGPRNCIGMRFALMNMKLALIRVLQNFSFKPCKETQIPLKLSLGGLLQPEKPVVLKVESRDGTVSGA
T2 sequence (P20813 whole entry): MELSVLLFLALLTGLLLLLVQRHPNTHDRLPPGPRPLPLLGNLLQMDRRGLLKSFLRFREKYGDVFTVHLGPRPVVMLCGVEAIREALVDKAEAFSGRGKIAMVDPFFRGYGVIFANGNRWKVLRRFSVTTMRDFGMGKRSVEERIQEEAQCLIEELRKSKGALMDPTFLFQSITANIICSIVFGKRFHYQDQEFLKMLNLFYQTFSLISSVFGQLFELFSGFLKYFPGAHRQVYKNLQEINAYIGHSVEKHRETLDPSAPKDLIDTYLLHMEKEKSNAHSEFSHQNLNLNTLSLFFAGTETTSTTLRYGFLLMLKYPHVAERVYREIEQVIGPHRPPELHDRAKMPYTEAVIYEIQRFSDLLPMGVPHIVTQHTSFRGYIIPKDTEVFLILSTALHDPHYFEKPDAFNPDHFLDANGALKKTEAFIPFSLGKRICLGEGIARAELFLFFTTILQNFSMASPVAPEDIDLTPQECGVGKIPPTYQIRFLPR
Sequence of CYP2B10 (P12791 whole entry): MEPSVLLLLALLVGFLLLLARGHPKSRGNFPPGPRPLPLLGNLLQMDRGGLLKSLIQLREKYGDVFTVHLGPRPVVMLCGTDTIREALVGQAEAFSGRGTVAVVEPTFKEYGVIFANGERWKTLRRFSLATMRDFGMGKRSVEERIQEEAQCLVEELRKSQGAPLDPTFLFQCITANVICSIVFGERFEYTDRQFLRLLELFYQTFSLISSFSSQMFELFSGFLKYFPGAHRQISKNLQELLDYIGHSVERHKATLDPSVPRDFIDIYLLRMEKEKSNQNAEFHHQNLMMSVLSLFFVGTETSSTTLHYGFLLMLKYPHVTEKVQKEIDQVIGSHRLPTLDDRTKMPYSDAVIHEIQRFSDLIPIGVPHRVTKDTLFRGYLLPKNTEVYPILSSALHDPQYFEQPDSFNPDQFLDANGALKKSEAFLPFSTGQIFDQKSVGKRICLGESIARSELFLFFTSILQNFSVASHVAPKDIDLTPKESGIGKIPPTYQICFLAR

13,19-didesmethyl C spirolide
Limit of detection (CYP1A2 and CYP2C19): 10 µg/L

C=C(C[C@@]12C[C@@H](C)C[C@H](O1)[C@H]1O[C@]3(C[C@H]1O2)NC[C@H](C)C[C@@H]3C)[C@H]1O[C@@](O)([C@@H](O)[C@@H]2C[C@H]3O[C@@]4(CC[C@]5(CC=C[C@@H](/C=C/CCC(=O)O)O5)O4)[C@H](C)C[C@H]3O2)[C@H](C)C[C@@H]1C [Azaspiracid-1]
Limit of detection (CYP1A2 and CYP2C19; CYP1A2 and CYP2C19, 5 μM EOMCC, concentration that induces 20% inhibition): 3 µg/L

Brc1ccc(Oc2ccc(Br)cc2Br)cc1 [BDE-28, 2,4,4′-Tribromodiphenyl ether]
Limits of detection (CYP3A4 [1]): 100 ng/mL

Brc1ccc(Oc2ccc(Br)cc2Br)c(Br)c1 [BDE-47, 2,2′,4,4′-Tetrabromodiphenyl ether]
Limits of detection (CYP3A4 [1]): 5 ng/mL

Brc1ccc(Oc2cc(Br)c(Br)cc2Br)c(Br)c1 [BDE-99, 2,2′,4,4′,5-Pentabromodiphenyl ether]
Limits of detection (CYP3A4 [1]): 100 ng/mL

Brc1ccc(Oc2c(Br)cc(Br)cc2Br)c(Br)c1 [BDE-100, 2,2′,4,4′,6-Pentabromodiphenyl ether]
Inhibition percentage I (%) (CYP3A4 [2]; CYP3A4, 2 μM DBF, 100 ng/ml contaminant): 55.4%
Limit of detection (CYP3A4 [2]; DBF substrate): 36 ng/mL
Limits of detection (CYP3A4 [1]): 5 ng/mL

Brc1cc(Br)c(Oc2cc(Br)c(Br)cc2Br)cc1Br [BDE-153, 2,2′,4,4′,5,5′-Hexabromodiphenyl ether]
Limits of detection (CYP3A4 [1]): 5 ng/mL

Brc1cc(Br)c(Oc2cc(Br)c(Br)cc2Br)c(Br)c1 [BDE-154, 2,2′,4,4′,5,6′-Hexabromodiphenyl ether]
Limits of detection (CYP3A4 [1]): 5 ng/mL

Brc1c(Br)c(Br)c(Oc2c(Br)c(Br)c(Br)c(Br)c2Br)c(Br)c1Br [BDE-209, Decabromodiphenyl ether]
Limits of detection (CYP3A4 [1]): 10 ng/mL

[CH3][Hg][Cl] [Methylmercury]
Limits of detection CYP2B10 (CYP2B10): 44.3 ng/mL

N[C@@H](CCC(=O)O)C(=O)[O-].[Na+] [Monosodium glutamate]
Limits of detection CYP3A4 (CYP3A4 [3]): 3.6 mg/mL

O=C([O-])c1ccccc1.[Na+] [Sodium Benzoate]
Limits of detection CYP2B10 (CYP2B10): 3.2e+06 ng/mL

O=NO [Sodium Nitrite]
Limits of detection CYP2B6 (CYP2B6 [4]): 2.3 mg/mL

C=CCC(=C)/C=C/[C@@](C)(O)[C@H]1O[C@@H]2C[C@@H]3O[C@@H]4C[C@@H]5O[C@@H]6C[C@@H]7O[C@@H]8C[C@@H]9O[C@@H]%10C[C@@H]%11O[C@](C)(CCOS(=O)(=O)O)[C@@H](OS(=O)(=O)O)C[C@H]%11O[C@H]%10C[C@H]9O[C@H]8CC[C@@]7(C)O[C@@]6(C)CC[C@H](C)[C@H]5O[C@H]4C[C@@]3(C)O[C@H]2CC1=C [Yessotoxin]
Limit of detection (CYP1A2 and CYP2C19; human): 45 µg/L

c1ccc2cc3c(ccc4ccccc43)cc2c1 [benz(a)anthracene (BaA), benz(a)anthracene]
Limit of detection (CYP2B6 [5]; human): 5 µg/L

c1ccc2c(c1)cc1ccc3cccc4ccc2c1c34 [benzo(a)pyrene (BaP), benzo(a)pyrene]
Limit of detection (CYP2B6 [5]; [7]): 15 µg/L

c1ccc2c(c1)-c1cccc3c1c-2cc1ccccc13 [benzo(b)fluoranthene (BbF), benzo(b)fluoranthene]
Limit of detection (CYP2B6 [5]; [7]): 20 µg/L

c1ccc2c(c1)ccc1c3ccccc3ccc21 [chrysene (Chrys), chrysene]
Limit of detection (CYP2B6 [5]; [7]): 10 µg/L

Hexabromocyclododecane [HBCD]
Inhibition percentage I (%) (CYP3A4 [2]; CYP3A4, 2 μM DBOMF, 50 ng/mL contaminant): 69.8%
Inhibition percentage I (%) (CYP3A4 [2]; CYP3A4, 2 μM DBOMF, 100 ng/mL contaminant): 84.3%
Limit of detection (CYP3A4 [2]; DBOMF substrate): 14 ng/mL
Limit of detection (CYP3A4 [6]): 42.8 ng/mL
